Assay in all cases: biochemical
Holding throughout (parameters): KINOMEscan active site-directed competition binding assay (DiscoveRx), 456 kinases, per cent of control at 300 nM
What all share (conditions): read-out: Percent of Control (%)

Assay [1] has as its target T1, ABL1-phosphorylated (Homo sapiens, UniProt P00519).
T1 construct: phosphorylated
In outline:
(§1)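 Active site-directed competition binding (KINOMEscan) across a 456-kinase panel, compounds tested at 300 nmol/L.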

Assay [2] addresses BMPR1A (Homo sapiens, UniProt P36894). In outline:
as §1

Assay [3] concerns the target T2, CDC2L2 (Homo sapiens, UniProt Q9UQ88).
T2 construct: gene CDK11A
In outline: as §1

Assay [4] has as its target DAPK1 (Homo sapiens, UniProt P53355). In outline: as §1
For assay [5], the target named is EGFR(G719C) (Homo sapiens, UniProt P00533, G719C). In outline: as §1
Assay [6] concerns the target EGFR(L747-T751del,Sins) (Homo sapiens, UniProt P00533, DEL747-750/T751S). In outline: as §1
In assay [7] the target is EPHA3 (Homo sapiens, UniProt P29320). In outline: as §1
Assay [8] addresses EPHB2 (Homo sapiens, UniProt P29323). In outline:
as §1

In assay [9] the target is T3, ICK (Homo sapiens, UniProt Q9UPZ9).
T3 construct: gene CILK1
In outline:
as §1

For assay [10], the target named is T4, JAK2(JH1domain-catalytic) (Homo sapiens, UniProt O60674).
T4 construct: JH1domain-catalytic
In outline:
as §1

Assay [11] has as its target KIT (Homo sapiens, UniProt P10721). In outline:
as §1

For assay [12], the target named is KIT-autoinhibited (Homo sapiens, UniProt P10721). In outline:
as §1

In assay [13] the target is MAP3K1 (Homo sapiens, UniProt Q13233). In outline:
as §1

Assay [14] addresses MAP3K3 (Homo sapiens, UniProt Q99759). In outline: as §1
Assay [15] has as its target PAK2 (Homo sapiens, UniProt Q13177). In outline:
as §1

Assay [16] addresses PDGFRA (Homo sapiens, UniProt P16234). In outline:
as §1

Assay [17] concerns the target PIK3C2B (Homo sapiens, UniProt O00750). In outline: as §1
Assay [18] has as its target PIK3CA(E545A) (Homo sapiens, UniProt P42336, E545A). In outline:
as §1

Assay [19] concerns the target PKN1 (Homo sapiens, UniProt Q16512). In outline:
as §1

The target of assay [20] is TEC (Homo sapiens, UniProt P42680). In outline:
as §1

Assay [21] addresses ULK3 (Homo sapiens, UniProt Q6PHR2). In outline: as §1
The target in assay [22] is T5, YANK1 (Homo sapiens, UniProt Q8WU08).
T5 construct: gene STK32A
In outline: as §1

Read-outs that look alike come from different tables or passages of the source.

Chain of PAK2 (Q13177 whole entry): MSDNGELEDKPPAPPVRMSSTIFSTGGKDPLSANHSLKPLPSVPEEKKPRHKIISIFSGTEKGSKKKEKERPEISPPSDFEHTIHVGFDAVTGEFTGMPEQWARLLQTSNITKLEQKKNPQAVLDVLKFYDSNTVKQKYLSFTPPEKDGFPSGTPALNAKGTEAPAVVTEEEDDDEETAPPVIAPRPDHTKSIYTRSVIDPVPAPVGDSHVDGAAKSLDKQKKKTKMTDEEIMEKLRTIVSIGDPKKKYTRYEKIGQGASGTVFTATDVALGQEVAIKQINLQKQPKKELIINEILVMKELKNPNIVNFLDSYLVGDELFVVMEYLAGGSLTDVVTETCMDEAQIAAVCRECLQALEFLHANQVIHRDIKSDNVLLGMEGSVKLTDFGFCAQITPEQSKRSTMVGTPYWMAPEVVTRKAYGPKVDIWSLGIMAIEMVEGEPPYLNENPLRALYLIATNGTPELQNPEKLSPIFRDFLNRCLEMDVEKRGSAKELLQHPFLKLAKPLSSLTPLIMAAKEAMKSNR
Chain of DAPK1 (P53355 whole entry): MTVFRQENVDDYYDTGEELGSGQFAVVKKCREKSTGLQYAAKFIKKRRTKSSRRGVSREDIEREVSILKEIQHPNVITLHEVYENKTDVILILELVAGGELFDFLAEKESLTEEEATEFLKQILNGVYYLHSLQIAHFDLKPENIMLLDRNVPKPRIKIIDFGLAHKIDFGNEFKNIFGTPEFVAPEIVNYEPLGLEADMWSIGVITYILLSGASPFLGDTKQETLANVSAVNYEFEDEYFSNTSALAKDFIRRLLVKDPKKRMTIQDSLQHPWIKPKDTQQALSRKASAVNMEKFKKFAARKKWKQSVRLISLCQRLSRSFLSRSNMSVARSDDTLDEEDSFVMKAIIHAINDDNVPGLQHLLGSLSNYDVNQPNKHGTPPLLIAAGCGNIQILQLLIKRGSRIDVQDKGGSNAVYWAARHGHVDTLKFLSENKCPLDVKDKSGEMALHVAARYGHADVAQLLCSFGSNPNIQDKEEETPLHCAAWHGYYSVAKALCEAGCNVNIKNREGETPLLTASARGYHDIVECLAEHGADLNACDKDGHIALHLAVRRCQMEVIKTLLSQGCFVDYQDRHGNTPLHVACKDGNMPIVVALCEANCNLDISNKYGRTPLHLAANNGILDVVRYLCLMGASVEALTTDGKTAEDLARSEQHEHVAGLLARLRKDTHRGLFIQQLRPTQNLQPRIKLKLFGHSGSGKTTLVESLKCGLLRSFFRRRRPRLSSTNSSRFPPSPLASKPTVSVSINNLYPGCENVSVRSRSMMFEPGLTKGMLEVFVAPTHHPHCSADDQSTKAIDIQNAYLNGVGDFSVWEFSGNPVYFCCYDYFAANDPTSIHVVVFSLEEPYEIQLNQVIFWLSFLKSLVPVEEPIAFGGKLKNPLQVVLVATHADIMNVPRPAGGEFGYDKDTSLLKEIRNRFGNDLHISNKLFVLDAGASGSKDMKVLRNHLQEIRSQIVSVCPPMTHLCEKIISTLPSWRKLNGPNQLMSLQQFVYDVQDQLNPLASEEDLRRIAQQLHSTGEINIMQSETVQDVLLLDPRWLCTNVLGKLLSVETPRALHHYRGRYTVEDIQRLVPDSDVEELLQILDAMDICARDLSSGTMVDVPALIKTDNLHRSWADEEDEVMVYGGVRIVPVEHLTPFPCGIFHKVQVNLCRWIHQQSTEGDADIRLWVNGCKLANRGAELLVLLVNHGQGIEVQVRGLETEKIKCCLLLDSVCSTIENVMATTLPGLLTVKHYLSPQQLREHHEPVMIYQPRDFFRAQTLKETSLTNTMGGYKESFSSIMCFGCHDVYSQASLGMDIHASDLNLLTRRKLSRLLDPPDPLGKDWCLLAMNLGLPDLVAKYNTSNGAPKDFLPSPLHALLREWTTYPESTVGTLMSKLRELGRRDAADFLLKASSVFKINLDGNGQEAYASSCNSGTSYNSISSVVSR
Chain of PIK3C2B (O00750 whole entry): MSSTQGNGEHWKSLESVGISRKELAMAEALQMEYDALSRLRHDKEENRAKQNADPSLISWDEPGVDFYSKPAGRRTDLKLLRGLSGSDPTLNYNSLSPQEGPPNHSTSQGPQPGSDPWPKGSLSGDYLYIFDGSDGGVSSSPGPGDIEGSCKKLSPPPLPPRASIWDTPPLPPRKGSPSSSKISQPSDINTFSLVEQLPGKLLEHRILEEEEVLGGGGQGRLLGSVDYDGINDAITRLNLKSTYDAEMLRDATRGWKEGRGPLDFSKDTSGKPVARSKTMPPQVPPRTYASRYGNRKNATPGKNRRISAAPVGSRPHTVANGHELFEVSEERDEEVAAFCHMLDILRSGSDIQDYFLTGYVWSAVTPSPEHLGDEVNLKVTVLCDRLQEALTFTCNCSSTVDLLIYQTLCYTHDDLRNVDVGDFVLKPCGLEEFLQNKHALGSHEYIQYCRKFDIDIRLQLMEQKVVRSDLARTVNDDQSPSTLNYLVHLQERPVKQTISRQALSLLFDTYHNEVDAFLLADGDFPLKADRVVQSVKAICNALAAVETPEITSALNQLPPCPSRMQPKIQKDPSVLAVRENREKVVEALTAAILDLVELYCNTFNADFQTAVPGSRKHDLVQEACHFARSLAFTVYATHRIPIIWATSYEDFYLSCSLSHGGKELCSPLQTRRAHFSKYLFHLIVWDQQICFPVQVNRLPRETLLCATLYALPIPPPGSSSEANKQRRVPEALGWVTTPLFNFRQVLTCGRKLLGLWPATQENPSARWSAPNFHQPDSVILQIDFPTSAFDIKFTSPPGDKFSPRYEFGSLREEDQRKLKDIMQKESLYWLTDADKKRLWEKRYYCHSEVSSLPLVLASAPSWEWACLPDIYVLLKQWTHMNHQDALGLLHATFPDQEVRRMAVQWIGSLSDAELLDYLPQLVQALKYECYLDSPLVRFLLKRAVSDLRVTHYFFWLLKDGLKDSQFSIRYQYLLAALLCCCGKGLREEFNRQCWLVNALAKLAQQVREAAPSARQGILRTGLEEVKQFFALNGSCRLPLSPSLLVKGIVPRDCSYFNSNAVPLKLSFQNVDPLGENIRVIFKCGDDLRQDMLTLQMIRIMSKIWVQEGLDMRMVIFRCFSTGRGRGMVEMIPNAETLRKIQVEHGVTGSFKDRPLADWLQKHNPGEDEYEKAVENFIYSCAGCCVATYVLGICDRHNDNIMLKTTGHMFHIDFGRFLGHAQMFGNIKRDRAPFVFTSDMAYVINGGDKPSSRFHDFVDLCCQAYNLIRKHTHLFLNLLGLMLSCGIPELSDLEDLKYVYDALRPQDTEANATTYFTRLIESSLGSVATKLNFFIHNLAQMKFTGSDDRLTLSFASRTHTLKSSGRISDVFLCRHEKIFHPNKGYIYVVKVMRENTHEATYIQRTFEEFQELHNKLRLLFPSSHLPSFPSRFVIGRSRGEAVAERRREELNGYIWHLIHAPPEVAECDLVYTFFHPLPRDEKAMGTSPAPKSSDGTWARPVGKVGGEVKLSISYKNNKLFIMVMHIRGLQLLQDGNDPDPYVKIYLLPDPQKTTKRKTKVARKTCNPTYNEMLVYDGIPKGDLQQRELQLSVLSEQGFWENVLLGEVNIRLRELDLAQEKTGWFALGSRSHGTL
Chain of EGFR(G719C) (P00533 whole entry G719C): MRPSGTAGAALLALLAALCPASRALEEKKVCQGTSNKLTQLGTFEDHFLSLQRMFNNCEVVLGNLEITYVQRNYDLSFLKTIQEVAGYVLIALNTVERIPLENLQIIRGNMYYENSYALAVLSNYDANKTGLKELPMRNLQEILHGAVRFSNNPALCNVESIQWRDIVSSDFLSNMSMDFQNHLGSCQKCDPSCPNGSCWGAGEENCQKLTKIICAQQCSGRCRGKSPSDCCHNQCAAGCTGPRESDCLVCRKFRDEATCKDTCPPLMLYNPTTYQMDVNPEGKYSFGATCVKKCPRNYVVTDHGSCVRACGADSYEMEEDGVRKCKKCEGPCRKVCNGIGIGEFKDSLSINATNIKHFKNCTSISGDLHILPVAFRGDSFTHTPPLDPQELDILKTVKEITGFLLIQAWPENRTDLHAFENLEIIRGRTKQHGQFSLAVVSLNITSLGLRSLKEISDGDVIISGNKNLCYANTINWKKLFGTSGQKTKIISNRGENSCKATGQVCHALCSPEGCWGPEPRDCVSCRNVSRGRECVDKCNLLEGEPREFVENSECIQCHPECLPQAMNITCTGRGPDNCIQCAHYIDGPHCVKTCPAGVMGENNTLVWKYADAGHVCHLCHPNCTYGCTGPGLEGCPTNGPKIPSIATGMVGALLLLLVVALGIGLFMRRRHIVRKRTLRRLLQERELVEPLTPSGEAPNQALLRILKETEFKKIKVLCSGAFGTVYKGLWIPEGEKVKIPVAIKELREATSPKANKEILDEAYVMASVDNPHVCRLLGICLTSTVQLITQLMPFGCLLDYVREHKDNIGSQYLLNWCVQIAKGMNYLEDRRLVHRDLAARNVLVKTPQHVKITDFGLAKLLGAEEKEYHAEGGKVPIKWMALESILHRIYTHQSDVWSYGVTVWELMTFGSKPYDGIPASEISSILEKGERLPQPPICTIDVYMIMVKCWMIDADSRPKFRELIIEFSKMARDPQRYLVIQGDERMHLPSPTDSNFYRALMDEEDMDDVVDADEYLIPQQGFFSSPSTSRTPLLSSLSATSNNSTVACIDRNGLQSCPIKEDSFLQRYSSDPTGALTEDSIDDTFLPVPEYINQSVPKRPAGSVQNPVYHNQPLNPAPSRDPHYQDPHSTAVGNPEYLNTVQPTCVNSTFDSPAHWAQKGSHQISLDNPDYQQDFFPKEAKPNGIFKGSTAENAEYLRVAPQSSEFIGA

Consider `O=C(/C=C/c1cnccc1-c1ccc(F)cc1)Nc1ccc(CCc2nnco2)cc1` [T-418, (2E)-3-(4-(4-fluorophenyl)pyridin-3-yl)-N-(4-(2-(1,3,4-oxadiazol-2-yl)ethyl)phenyl)acrylamide], for which the remaining binding at 0.3 µM in assay [1] (sheet T-418) turned out to be 89%; in [2] (sheet T-418) it was 79%; in assay [3] (sheet T-418) it was 100%; in assay [4] (sheet T-418), 100%; in assay [5] (sheet T-418) it was 72%; in assay [6] (sheet T-418) it was 100%. The remaining binding at 0.3 µM in assay [7] (sheet T-418), in assay [8] (sheet T-418), in [9] (sheet T-418), in [10] (sheet T-418), in [11] (sheet T-418) and in [12] (sheet T-418) was 100% throughout. The remaining binding at 0.3 µM in [13] (sheet T-418) is 100%; in assay [14] (sheet T-418), 94%; in assay [15] (sheet T-418), 70%; in assay [16] (sheet T-418), 97%; in assay [17] (sheet T-418), 88%; in assay [18] (sheet T-418), 78%. Moreover, the remaining binding at 0.3 µM was determined as 48% in assay [19] (sheet T-418), 98% in assay [20] (sheet T-418), 20% in [21] (sheet T-418) and 100% in [22] (sheet T-418).

Regarding `Cc1ncccc1Oc1sc(C(N)=O)c2c1-c1c(cnn1C)CC2` [T-474, 1-methyl-8-((2-methylpyridin-3-yl)oxy)-4,5-dihydro-1H-thieno[3,4-g]indazole-6-carboxamide], the remaining binding at 0.3 µM was 100% in [1]; 100% in assay [2]; 98% in [3]; 100% in assay [4]; 99% in assay [5]; 87% in assay [6]. Moreover, the remaining binding at 0.3 µM was 100% in [7]; 83% in [8]; 100% in [9]; 100% in assay [10]; 100% in assay [11]; 100% in assay [12]. The remaining binding at 0.3 µM in assay [13] was found to be 84%; in assay [14], 100%; in assay [15], 88%; in assay [16] it was 96%; in assay [17], 86%; in assay [18], 69%. In addition, the remaining binding at 0.3 µM in assay [19] came out at 54%; in [20], 100%; in [21], 20%; in assay [22], 100%.
